ChEMBL document CHEMBL3797079, “Synergistic reduction of HIV-1 infectivity by 5-azacytidine and inhibitors of ribonucleotide reductase” (Bioorg Med Chem, 2016)
Activity calls are given as the source filed them. No cut-off for these calls is given here.

How the values were obtained:
[1] = tested on: U373-MAGI; experiment: Increase in 5-aza-dCTP/dCTP ratio in human U373-MAGI cells at 2.5 nM preincubated for 2 hrs followed by 5-aza-dC addition measured after 4 hrs by LC-MS/MS analysis relative to 5-aza-dC; format: functional, cell-based
[2] = tested on: U373-MAGI; experiment: Increase in 5-aza-dCTP/dCTP ratio in human U373-MAGI cells at 25 nM preincubated for 2 hrs followed by 5-aza-C addition measured after 4 hrs by LC-MS/MS analysis relative to 5-aza-C; format: functional, cell-based
[3] = tested on: U373-MAGI; experiment: Increase in 5-aza-dCTP/dCTP ratio in human U373-MAGI cells at 2.5 nM preincubated for 2 hrs followed by 5-aza-C addition measured after 4 hrs by LC-MS/MS analysis relative to 5-aza-C; format: functional, cell-based
[4] = tested on: U373-MAGI; experiment: Reduction in dCTP level in human U373-MAGI cells at 25 nM preincubated for 2 hrs followed by 5-aza-C addition measured after 4 hrs by LC-MS/MS analysis relative to 5-aza-C; format: functional, cell-based
[5] = Reduction in dATP level in human U373-MAGI cells at 2.5 nM after 6 hrs by LC-MS/MS analysis; format: functional; design: scale not given: the % may be the effect or the level left
[6] = Cytotoxicity against human U373-MAGI cells at 2.5 nM measured at 72 hrs by Celltiter-Glo luminescent cell viability assay; format: cell-based; conditions: 0.0025 µM
[7] = tested on: U373-MAGI; experiment: Reduction in dCTP level in human U373-MAGI cells at 2.5 nM after 6 hrs by LC-MS/MS analysis; format: functional, cell-based
[8] = tested on: U373-MAGI; experiment: Reduction in dCTP level in human U373-MAGI cells at 25 nM after 6 hrs by LC-MS/MS analysis; format: functional, cell-based
[9] = tested on: U373-MAGI; experiment: Reduction in dTTP level in human U373-MAGI cells at 2.5 nM after 6 hrs by LC-MS/MS analysis; format: functional, cell-based
[10] = tested on: U373-MAGI; experiment: Reduction in dATP level in human U373-MAGI cells at 25 nM after 6 hrs by LC-MS/MS analysis; format: functional, cell-based
[11] = tested on: U373-MAGI; experiment: Reduction in dGTP level in human U373-MAGI cells at 25 nM after 6 hrs by LC-MS/MS analysis; format: functional, cell-based
[12] = tested on: U373-MAGI; experiment: Effect on dRGU-TP level in human U373-MAGI cells at 25 nM preincubated for 2 hrs followed by 5-aza-dC addition measured after 4 hrs by LC-MS/MS analysis; format: functional, cell-based
[13] = tested on: U373-MAGI; experiment: Reduction in 5-aza-dCTP level in human U373-MAGI cells at 2.5 nM preincubated for 2 hrs followed by 5-aza-C addition measured after 4 hrs by LC-MS/MS analysis; format: functional, cell-based
[14] = tested on: U373-MAGI; experiment: Reduction in dCTP level in human U373-MAGI cells at 25 nM preincubated for 2 hrs followed by 5-aza-dC addition measured after 4 hrs by LC-MS/MS analysis relative to 5-aza-dC; format: functional, cell-based
[15] = tested on: Human immunodeficiency virus 1; experiment: Antiviral activity against VSV-G pseudotyped HIV-1 NL4-3 infected in human U373-MAGI cells assessed as reduction in viral infectivity at 2.5 nM incubated for 4 hrs prior to viral infection measured at 72 hrs post infection by flow cytometric analysis; format: functional, organism-based
[16] = tested on: Human immunodeficiency virus 1; experiment: Potentiation of 5-Aza-C-induced antiviral activity against VSV-G pseudotyped HIV-1 NL4-3 infected in human U373-MAGI cells assessed as decrease in 5-Aza-C EC50 at 2.5 nM preincubated for 2 hrs followed by 5-Aza-C addition for 2 hrs and subsequent viral infection measured at 72 hrs post infection by flow cytometric analysis relative to control; format: functional
[17] = tested on: U373-MAGI; experiment: Reduction in dRGU-TP level in human U373-MAGI cells at 25 nM preincubated for 2 hrs followed by 5-aza-C addition measured after 4 hrs by LC-MS/MS analysis; format: functional, cell-based
[18] = tested on: U373-MAGI; experiment: Effect on 5-aza-dCTP level in human U373-MAGI cells at 25 nM preincubated for 2 hrs followed by 5-aza-dC addition measured after 4 hrs by LC-MS/MS analysis; format: functional, cell-based
[19] = tested on: U373-MAGI; experiment: Effect on 5-aza-dCTP level in human U373-MAGI cells at 2.5 nM preincubated for 2 hrs followed by 5-aza-dC addition measured after 4 hrs by LC-MS/MS analysis; format: functional, cell-based
[20] = tested on: U373-MAGI; experiment: Increase in 5-aza-dCTP/dCTP ratio in human U373-MAGI cells at 25 nM preincubated for 2 hrs followed by 5-aza-dC addition measured after 4 hrs by LC-MS/MS analysis relative to 5-aza-dC; format: functional, cell-based
[21] = tested on: U373-MAGI; experiment: Reduction in dCTP level in human U373-MAGI cells at 2.5 nM preincubated for 2 hrs followed by 5-aza-dC addition measured after 4 hrs by LC-MS/MS analysis relative to 5-aza-dC; format: functional, cell-based
[22] = tested on: U373-MAGI; experiment: Reduction in dTTP level in human U373-MAGI cells at 25 nM after 6 hrs by LC-MS/MS analysis; format: functional, cell-based
[23] = tested on: U373-MAGI; experiment: Reduction in dCTP level in human U373-MAGI cells at 2.5 nM preincubated for 2 hrs followed by 5-aza-C addition measured after 4 hrs by LC-MS/MS analysis; format: functional, cell-based
[24] = tested on: U373-MAGI; experiment: Reduction in dGTP level in human U373-MAGI cells at 2.5 nM after 6 hrs by LC-MS/MS analysis; format: functional, cell-based
[25] = tested on: U373-MAGI; experiment: Effect on dRGU-TP level in human U373-MAGI cells at 2.5 nM preincubated for 2 hrs followed by 5-aza-dC addition measured after 4 hrs by LC-MS/MS analysis; format: functional, cell-based
[26] = tested on: U373-MAGI; experiment: Reduction in 5-aza-dCTP level in human U373-MAGI cells at 25 nM preincubated for 2 hrs followed by 5-aza-C addition measured after 4 hrs by LC-MS/MS analysis; format: functional, cell-based
[27] = tested on: U373-MAGI; experiment: Reduction in dRGU-TP level in human U373-MAGI cells at 2.5 nM preincubated for 2 hrs followed by 5-aza-C addition measured after 4 hrs by LC-MS/MS analysis; format: functional, cell-based

In the case of `Nc1ccn([C@@H]2O[C@H](CO)[C@@H](O)C2(F)F)c(=O)n1` [GEMCITABINE], the Activity [1] is reported as “Active”, the Activity [2] is reported as “inactive” and the Activity [3] is reported as “inactive”. For the same compound, the Activity [4] was “Active”, the Activity [5] was 30% and the Activity [6] was “Non-toxic”. For the same compound, the Activity [7] was “inactive”, the Activity [8] was “Active” and the Activity [9] was “inactive”. For the same compound, the Activity [10] was “Active”, the Activity [11] was “Active” and the Activity [12] was “inactive”. For the same compound, the Activity [13] was “inactive”, the Activity [14] was “Active” and the Activity [15] was “Active”. The “fold change (FC)” value [16] was 2.5, the Activity [17] was “Active” and the Activity [18] was “inactive”. The Activity [19] was “inactive”, the Activity [20] was “Active” and the Activity [21] was “Active”. For the same compound, the Activity [22] was “inactive”, the Activity [23] was “Active” and the Activity [24] was “inactive”. The Activity [25] was “inactive”, the Activity [26] was “Active” and the Activity [27] was “inactive”.
